Laboratory results reported in article PMC9558053, “Development of a novel high-throughput screen for the identification of new inhibitors of protein S-acylation” (The Journal of Biological Chemistry, 2022).

Molecular target: T1, human zDHHC17 (Homo sapiens, UniProt Q8IUH5)
T1 construct: expressed in transfected cells; host or cells: HEK293T
Assay: GFP-SNAP25b S-acylation in HEK293T cells co-expressing zDHHC17
Type: cell-based
Conditions: in cellulo HEK293T, compound 25 μM; for inhibition at 25 µM: HEK-293T, read-out: SNAP25 S-acylation inhibition (%), zDHHC17; for SNAP25 S-acylation inhibition (%), zDHHC17: 25 µM
Method: We next investigated whether the identified compounds were effective at inhibiting zDHHC enzyme isoforms other than zDHHC2 (Fig. 6 and Table 1). […] We therefore treated cells coexpressing GFP-SNAP25 and each of these zDHHC enzymes with 25 μM of TTZ-1 and TTZ-2 and studied the subsequent effect on SNAP25 S-acylation. […] Importantly, the level of enzyme expression was unaffected by the compounds. […] As any major differences in the expression levels of the different enzymes could in theory contribute to the apparent differential effects of TTZ-1 and TTZ-2, we directly compared the expression of zDHHC2, zDHHC3, zDHHC7, zDHHC15, and zDHHC17 when transfected in HEK293T cells together with GFP-SNAP25.
Figure 6 Activity of TTZ-1 and TTZ-2 against SNAP25 S-acylation by human zDHHC2, zDHHC3, zDHHC7, zDHHC15, and zDHHC17 expressed in mammalian cells.A–E, HEK293T cells were transfected with a plasmid encoding GFP-SNAP25b together with either a control plasmid pEF-BOS-HA (pEF) or a plasmid encoding either HA-tagged human zDHHC2 (zD2) (A), zDHHC3 (zD3) (B), zDHHC7 (zD7) (C), zDHHC15 (zD15) (D), or zDHHC17 (zD17) (E) for 24 h. Cells were then preincubated for 4 h with TTZ-1 or TTZ-2 (25 μM final) or DMSO control before metabolic labeling with 100 μM C16:0-azide for 4 h. Cells were lysed, and proteins having incorporated C16:0-azide were labeled by click chemistry with an alkyne-IR800 dye. Protein samples were then resolved by SDS-PAGE and transferred to nitrocellulose membranes that were first stained with an infrared-680 total protein stain. Membranes were then destained and probed with an anti-HA antibody (IR680), followed by an anti-GFP antibody (IR680). Representative images are shown, and panels are presented in the following order (from top to bottom): click chemistry signal (Click [IR800]), GFP and HA immunoblots (IR680), and Total Protein Stain (IR680). Positions of the molecular mass markers (in kilodalton) are indicated on the right side of the membranes. Three independent experiments were performed either in duplicate or in triplicate, and the quantification data were gathered on the graphs below each set of membranes. […] Filled circles represent individual samples. […] Filled circles represent individual samples. Statistical analysis (ANOVA) was performed to test whether there was a significant difference between the zDHHC expression of cells treated with DMSO as a control versus similar samples treated with TTZ-1 or TTZ-2 (∗∗p < 0.01). F, samples from A, B, C, D, and E (expressing GFP-SNAP25 and HA-tagged zDHHC enzymes and treated with DMSO) were loaded on an SDS-PAGE gel and transferred to a nitrocellulose membrane. The membrane was probed for the expression of the HA-tagged enzymes with an anti-HA antibody (IR680). […]

T1 sequence (Q8IUH5 whole entry): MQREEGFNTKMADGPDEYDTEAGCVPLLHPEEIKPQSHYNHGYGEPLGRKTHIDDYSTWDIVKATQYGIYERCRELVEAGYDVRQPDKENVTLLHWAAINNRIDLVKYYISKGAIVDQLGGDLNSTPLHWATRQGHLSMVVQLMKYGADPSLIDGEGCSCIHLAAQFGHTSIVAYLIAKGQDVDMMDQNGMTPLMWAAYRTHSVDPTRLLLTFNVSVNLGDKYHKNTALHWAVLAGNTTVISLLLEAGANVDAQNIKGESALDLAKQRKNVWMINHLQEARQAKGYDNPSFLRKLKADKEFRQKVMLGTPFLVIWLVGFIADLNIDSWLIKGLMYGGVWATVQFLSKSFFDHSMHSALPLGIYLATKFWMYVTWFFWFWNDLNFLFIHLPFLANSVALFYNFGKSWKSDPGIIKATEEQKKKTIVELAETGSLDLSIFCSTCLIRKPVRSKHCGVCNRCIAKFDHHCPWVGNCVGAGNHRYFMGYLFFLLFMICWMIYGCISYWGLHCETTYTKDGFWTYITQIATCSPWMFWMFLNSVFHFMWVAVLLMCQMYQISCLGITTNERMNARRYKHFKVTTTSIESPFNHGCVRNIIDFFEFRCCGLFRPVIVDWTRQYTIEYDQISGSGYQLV

SMILES	inhibition at 25 µM [%]	SNAP25 S-acylation inhibition (%), zDHHC17 [%]
CCCCCCCOc1ccc(C(=O)Nc2cccc3c2OC(c2nnn[nH]2)CN3)cc1 (stereo not shown) [TTZ-1, N-(2-(1H-Tetrazol-5-yl)-3,4-dihydro-2H-benzo[b][1,4]oxazin-8-yl)-4-(heptyloxy)benzamide]	35 to 40	36 ± 7
O=C(Nc1cccc2c1OC(c1nnn[nH]1)CN2)c1ccc(OCCCCc2ccccc2)cc1 (stereo not shown) [TTZ-2, N-(2-(1H-Tetrazol-5-yl)-3,4-dihydro-2H-benzo[b][1,4]oxazin-8-yl)-4-(4-phenylbutoxy)benzamide]	35 to 40	39 ± 7
